Experimental data: ChEMBL document CHEMBL1201862, “PubChem BioAssay data set” (2004)
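Each compound was tested at five concentrations against cells in 96-well plates for 48 hours. Here, GI50 denotes the concentration required for 50% inhibition of growth.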 The source made the active and inactive calls. No stated cut-off is given here; in the data, active = GI50 up to about 1.1 µM and inactive = higher.

Columns and labels:
Experiment in all cases: DTP human tumour cell line panel, 48 h
[1] = tested on: U-251
[2] = tested on: A549
[3] = tested on: EKVX
[4] = tested on: Malme-3M
[5] = tested on: Hs-578T
[6] = tested on: ACHN
[7] = tested on: NCI-H460
[8] = tested on: OVCAR-5
[9] = tested on: SF-295
[10] = tested on: HL-60
[11] = tested on: OVCAR-4
[12] = tested on: SK-MEL-2
[13] = tested on: MDA-N
[14] = tested on: KM12
[15] = tested on: CAKI-1
[16] = tested on: NCI/ADR-RES
[17] = tested on: TK-10
[18] = tested on: HOP-92
[19] = tested on: MCF7
[20] = tested on: UACC-62
[21] = tested on: K562
[22] = tested on: RXF 393
[23] = tested on: PC-3
[24] = tested on: MOLT-4
[25] = tested on: MDA-MB-435
[26] = tested on: SF-539
[27] = tested on: SR
[28] = tested on: A498
[29] = tested on: BT-549
[30] = tested on: HCT-116
[31] = tested on: NCI-H23
[32] = tested on: HCT-15
[33] = tested on: MDA-MB-231
[34] = tested on: SK-OV-3
[35] = tested on: OVCAR-8
[36] = tested on: HCC 2998
[37] = tested on: HT-29
[38] = tested on: M14
[39] = tested on: SN12C
[40] = tested on: UACC-257
[41] = tested on: OVCAR-3
[42] = tested on: NCI-H522
[43] = tested on: NCI-H226
[44] = tested on: SW-620
[45] = tested on: SNB-19
[46] = tested on: DU-145
[47] = tested on: 786-0
[48] = tested on: COLO 205
[49] = tested on: SK-MEL-28
[50] = tested on: T47D
[51] = tested on: IGROV-1
[52] = tested on: SNB-75
[53] = tested on: UO-31
[54] = tested on: CCRF-CEM
[55] = tested on: SF-268
[56] = tested on: LOX IMVI
[57] = tested on: SK-MEL-5
[58] = tested on: RPMI-8226
[59] = tested on: HOP-62

Structure (SMILES): C=C1C[C@@H]2O[C@H]3[C@H]4[C@@H](C[C@@H](C)[C@@H](OC(C)=O)[C@H]42)[C@@H](C)CO[C@@]3(C)[C@H](OC(C)=O)C[C@H]1O
- GI50 [1]: > 100 µM (inactive)
- GI50 [2]: > 100 µM (inactive)
- GI50 [3]: > 100 µM (inactive)
- GI50 [4]: > 100 µM (inactive)
- GI50 [5]: > 100 µM (inactive)
- GI50 [6]: > 100 µM (inactive)
- GI50 [7]: 70.8 µM (inactive)
- GI50 [8]: > 100 µM (inactive)
- GI50 [9]: > 100 µM (inactive)
- GI50 [10]: 16.9 µM (inactive)
- GI50 [11]: > 100 µM (inactive)
- GI50 [12]: > 100 µM (inactive)
- GI50 [13]: 40.5 µM (inactive)
- GI50 [14]: > 100 µM (inactive)
- GI50 [15]: > 100 µM (inactive)
- GI50 [16]: > 100 µM (inactive)
- GI50 [17]: > 100 µM (inactive)
- GI50 [18]: 66.8 µM (inactive)
- GI50 [19]: 84.5 µM (inactive)
- GI50 [20]: > 100 µM (inactive)
- GI50 [21]: 25.7 µM (inactive)
- GI50 [22]: 38.7 µM (inactive)
- GI50 [23]: 95.9 µM (inactive)
- GI50 [24]: 53 µM (inactive)
- GI50 [25]: 33 µM (inactive)
- GI50 [26]: > 100 µM (inactive)
- GI50 [27]: 43 µM (inactive)
- GI50 [28]: > 100 µM (inactive)
- GI50 [29]: 63.4 µM (inactive)
- GI50 [30]: > 100 µM (inactive)
- GI50 [31]: > 100 µM (inactive)
- GI50 [32]: > 100 µM
- GI50 [33]: > 100 µM (inactive)
- GI50 [34]: > 100 µM (inactive)
- GI50 [35]: 82.6 µM (inactive)
- GI50 [36]: > 100 µM (inactive)
- GI50 [37]: 63.2 µM (inactive)
- GI50 [38]: > 100 µM (inactive)
- GI50 [39]: > 100 µM (inactive)
- GI50 [40]: > 100 µM (inactive)
- GI50 [41]: 65.2 µM (inactive)
- GI50 [42]: 48 µM (inactive)
- GI50 [43]: > 100 µM (inactive)
- GI50 [44]: 55.6 µM (inactive)
- GI50 [45]: > 100 µM (inactive)
- GI50 [46]: > 100 µM (inactive)
- GI50 [47]: > 100 µM (inactive)
- GI50 [48]: 88.1 µM (inactive)
- GI50 [49]: > 100 µM (inactive)
- GI50 [50]: > 100 µM (inactive)
- GI50 [51]: > 100 µM (inactive)
- GI50 [52]: 84.3 µM (inactive)
- GI50 [53]: 77.6 µM (inactive)
- GI50 [54]: 25.9 µM (inactive)
- GI50 [55]: > 100 µM (inactive)
- GI50 [56]: 17.1 µM (inactive)
- GI50 [57]: > 100 µM (inactive)

Structure (SMILES): O=C(Nc1ccccc1)N(CCN(Cc1ccccc1)C(=O)Nc1ccccc1)CCN(Nc1ccccc1)C(=O)Nc1ccccc1
- GI50 [58]: > 100 µM (inactive)
- GI50 [1]: > 100 µM (inactive)
- GI50 [2]: > 100 µM (inactive)
- GI50 [3]: > 100 µM (inactive)
- GI50 [4]: > 100 µM (inactive)
- GI50 [5]: > 100 µM (inactive)
- GI50 [6]: > 100 µM (inactive)
- GI50 [7]: > 100 µM (inactive)
- GI50 [8]: > 100 µM (inactive)
- GI50 [9]: > 100 µM (inactive)
- GI50 [10]: > 100 µM (inactive)
- GI50 [11]: > 100 µM (inactive)
- GI50 [12]: > 100 µM (inactive)
- GI50 [13]: > 100 µM (inactive)
- GI50 [14]: > 100 µM (inactive)
- GI50 [15]: > 100 µM (inactive)
- GI50 [16]: > 100 µM (inactive)
- GI50 [17]: > 100 µM (inactive)
- GI50 [18]: > 100 µM (inactive)
- GI50 [19]: > 100 µM (inactive)
- GI50 [20]: > 100 µM (inactive)
- GI50 [21]: > 100 µM (inactive)
- GI50 [22]: > 100 µM (inactive)
- GI50 [23]: > 100 µM (inactive)
- GI50 [24]: > 100 µM (inactive)
- GI50 [25]: > 100 µM (inactive)
- GI50 [27]: > 100 µM (inactive)
- GI50 [28]: > 100 µM (inactive)
- GI50 [29]: > 100 µM (inactive)
- GI50 [30]: > 100 µM (inactive)
- GI50 [31]: > 100 µM (inactive)
- GI50 [32]: > 100 µM
- GI50 [59]: > 100 µM (inactive)
- GI50 [33]: > 100 µM (inactive)
- GI50 [34]: > 100 µM (inactive)
- GI50 [35]: > 100 µM (inactive)
- GI50 [36]: > 100 µM (inactive)
- GI50 [37]: > 100 µM (inactive)
- GI50 [38]: 92.9 µM (inactive)
- GI50 [39]: > 100 µM (inactive)
- GI50 [40]: > 100 µM (inactive)
- GI50 [41]: > 100 µM (inactive)
- GI50 [42]: > 100 µM (inactive)
- GI50 [43]: > 100 µM (inactive)
- GI50 [44]: > 100 µM (inactive)
- GI50 [45]: > 100 µM (inactive)
- GI50 [46]: > 100 µM (inactive)
- GI50 [47]: > 100 µM (inactive)
- GI50 [48]: > 100 µM (inactive)
- GI50 [49]: > 100 µM (inactive)
- GI50 [50]: > 100 µM (inactive)
- GI50 [51]: > 100 µM (inactive)
- GI50 [52]: > 100 µM (inactive)
- GI50 [53]: > 100 µM (inactive)
- GI50 [54]: > 100 µM (inactive)
- GI50 [55]: > 100 µM (inactive)
- GI50 [56]: > 100 µM (inactive)
- GI50 [57]: > 100 µM (inactive)

Structure (SMILES): COC1=CC(=O)C2=C(C1=O)[C@H]1CC[C@]3(C)C(=O)CC[C@H]3[C@@H]1CC2
- GI50 [58]: 26.1 µM (inactive)
- GI50 [1]: 32.2 µM (inactive)
- GI50 [2]: 45.3 µM (inactive)
- GI50 [3]: 16.7 µM (inactive)
- GI50 [5]: 28.5 µM (inactive)
- GI50 [6]: 27.3 µM (inactive)
- GI50 [7]: > 100 µM (inactive)
- GI50 [8]: 20.3 µM (inactive)
- GI50 [9]: 66.7 µM (inactive)
- GI50 [10]: 2.38 µM (inactive)
- GI50 [11]: 15.8 µM (inactive)
- GI50 [12]: 18.7 µM (inactive)
- GI50 [13]: 25.2 µM (inactive)
- GI50 [14]: 36.8 µM (inactive)
- GI50 [15]: 25.8 µM (inactive)
- GI50 [16]: 20.1 µM (inactive)
- GI50 [17]: > 100 µM (inactive)
- GI50 [18]: 19.8 µM (inactive)
- GI50 [19]: 19 µM (inactive)
- GI50 [20]: 30.1 µM (inactive)
- GI50 [21]: 33.6 µM (inactive)
- GI50 [22]: 28.1 µM (inactive)
- GI50 [23]: 28.5 µM (inactive)
- GI50 [24]: 4.31 µM (inactive)
- GI50 [25]: 19.8 µM (inactive)
- GI50 [26]: 19.6 µM (inactive)
- GI50 [27]: 34.9 µM (inactive)
- GI50 [28]: > 100 µM (inactive)
- GI50 [29]: 19.4 µM (inactive)
- GI50 [30]: 18.5 µM (inactive)
- GI50 [31]: 27.1 µM (inactive)
- GI50 [32]: 27.2 µM
- GI50 [59]: 59.8 µM (inactive)
- GI50 [33]: 4 µM (inactive)
- GI50 [34]: > 100 µM (inactive)
- GI50 [35]: 18.1 µM (inactive)
- GI50 [36]: 54.1 µM (inactive)
- GI50 [37]: 26.3 µM (inactive)
- GI50 [38]: 30.4 µM (inactive)
- GI50 [39]: 21.4 µM (inactive)
- GI50 [40]: 22.9 µM (inactive)
- GI50 [41]: 23.3 µM (inactive)
- GI50 [42]: 24.2 µM (inactive)
- GI50 [43]: 22.1 µM (inactive)
- GI50 [44]: 26.4 µM (inactive)
- GI50 [45]: > 100 µM (inactive)
- GI50 [46]: 25.3 µM (inactive)
- GI50 [47]: 24.1 µM (inactive)
- GI50 [48]: 39.8 µM (inactive)
- GI50 [49]: 78 µM (inactive)
- GI50 [50]: 22.8 µM (inactive)
- GI50 [51]: 21.4 µM (inactive)
- GI50 [52]: > 100 µM (inactive)
- GI50 [53]: 22.2 µM (inactive)
- GI50 [54]: 3.62 µM (inactive)
- GI50 [55]: 21.5 µM (inactive)
- GI50 [56]: 18.6 µM (inactive)
- GI50 [57]: 18.5 µM (inactive)
